We go through two compounds from PMC7583942, “Profiling Anticancer and Antioxidant Activities of Phenolic Compounds Present in Black Walnuts (Juglans nigra) Using a High-Throughput Screening Approach” (Molecules, 2020).

Data set [1] has as its system non-tumorigenic lung fibroblast cells (MRC-5). Put plainly: Cell proliferation assay (CellTiter-Glo), MRC-5. It is filed as cell-based, human. As to conditions: Homo sapiens, MRC5, 72 h incubation, read-out: Half maximal inhibitory concentration (IC50), MRC-5 Cell Line. On the procedure:
(§1) An Nrf2 antioxidant response element (ARE) reporter HepG2 cell line, a stably transfected liver cell line expressing a firefly luciferase gene under the control of the ARE, was purchased from BPS Bioscience (San Diego, CA, USA). The human alveolar epithelial cell line A549 and the human lung fibroblast cell line MRC-5 were obtained from American Type Culture Collection (ATCC) (CCL-185 and CCL-171, ATCC, Manassas, VA, USA). The HepG2-ARE cells were grown in modified Eagle’s medium (MEM) supplemented with GlutaMAX, 10% fetal calf serum (FBS) and 600ug/mL Geneticin (Thermo Fisher Scientific, Waltham, MA, USA). […] All cells were grown and maintained at 37 °C in a humidified incubator with 5% CO2. Influence of the phenolic compounds on cell growth in the tumorigenic alveolar epithelial cells (A549) and non-tumorigenic lung fibroblast cell (MRC-5) cell lines was investigated using the CellTiter-Glo® cell viability assay kit (G7571, BioVision, CA, USA), according to the manufacturer’s instructions. […] The cultures were treated with the phenolic compounds and DL-Sulphorane (a known antiproliferative agent as a positive control) at 7 final concentrations (as mentioned above) and a vehicle (0.35% DMSO). After 72h of incubation, CellTiter-Glo Luminescent assay reagent (Promega) was dispensed at a volume of 10 µL per well into the 384-well plates for 10 min using the Matrix Wellmate dispenser (Thermo Fisher Scientific). The plates were allowed to incubate at room temperature for 20 min and then the luminescence was read using an Enspire microplate reader (Perkin Elmer Inc.) The relative cytotoxicity (%) of the phenolic compounds was calculated by dividing the specific luminescence absorbance of the treated sampled by the specific luminescence absorbance of the control sample and multiplying by 100. The control sample (in the presence of DMSO vehicle and without the compounds) was set at 100%. Non-linear regression analysis of data was performed to identify the dose-response curve for each compound. The IC50 values (half maximal inhibitory concentration) of each compound were determined from the dose-response curve for the A549 and MRC-5 cell lines using GraphPad Prism 8.
Background: In ATP-based viability assays light output follows the ATP content of the culture.

The test system of data set [2] is antioxidant response element (ARE) in HepG2-ARE cells. As to the kind of experiment: Antioxidant response element (ARE) activation, Steady-Glo luciferase reporter assay. It is filed as cell-based, human. On the procedure:
An Nrf2 antioxidant response element (ARE) reporter HepG2 cell line, a stably transfected liver cell line expressing a firefly luciferase gene under the control of the ARE, was purchased from BPS Bioscience (San Diego, CA, USA). The human alveolar epithelial cell line A549 and the human lung fibroblast cell line MRC-5 were obtained from American Type Culture Collection (ATCC) (CCL-185 and CCL-171, ATCC, Manassas, VA, USA). The HepG2-ARE cells were grown in modified Eagle’s medium (MEM) supplemented with GlutaMAX, 10% fetal calf serum (FBS) and 600ug/mL Geneticin (Thermo Fisher Scientific, Waltham, MA, USA). The tumorigenic alveolar epithelial cells (A549) and non-tumorigenic lung fibroblast cells (MRC-5) were grown in RPMI medium supplemented with 10% FBS. All cells were grown and maintained at 37 °C in a humidified incubator with 5% CO2.
The impact of the phenolic compounds on ARE activation in the HepG2-ARE cell line was evaluated using Steady-Glo® Luciferase assay system (E2510, Promega, Madison, WI, USA), following the manufacturer’s instructions. In brief, the HepG2 -ARE cells were seeded at a density of 10,000 cells/well in 384-well plates containing 50 µL of the complete media per well using a Multidrop Combi dispenser (Thermo Fisher Scientific, Waltham, MA, USA) and then the plate cultures were incubated at 37 °C in a 5% CO2 humidified incubator for 20 h. The HepG2-ARE cells were incubated with compounds for 18 h. The known ARE activator TBHQ was used as a positive control and the cells treated with 0.35% DMSO and without compounds tested served as a vehicle control. The cells in the absence of DMSO and the compounds were utilized for measuring the background luminescence. The reporter activity was measured by the addition of 25 µL Steady-Glo® luciferase assay reagent (Promega) for 30 min using the Multidrop Combi dispenser (Thermo Fisher Scientific). The luminescence intensities of the 384-well plates were read on Enspire microplate reader (Perkin Elmer Inc.). Percent cytotoxicity of compounds was normalized to the positive and negative controls on each assay plate.
The ARE fold induction of the compounds was measured by dividing the luminescence absorbance of the treatment by the specific luminescence absorbance of the control sample and multiplying by 100. The control sample (in the presence of DMSO vehicle and without the compounds) was set at 100%.

Data set [3] has as its system tumorigenic alveolar epithelial cells (A549). As to the kind of experiment: Cell proliferation assay (CellTiter-Glo), A549. It is filed as cell-based, human. The note with it: Homo sapiens, A549, 72 h incubation, read-out: Half maximal inhibitory concentration (IC50), A549 Cell Line. On the procedure: as §1
A short description of data set [4]: Total antioxidant capacity (TAC) colorimetric assay. As to conditions: for Fold-Increase Over Trolox: coefficient of compound model divided by coefficient of Trolox control; for total antioxidant capacity compared with the control (Trolox): in words; for Slope (in Trolox Equivalents): linear regression of dose-response, 7 concentrations, Cu2+ reagent, 1.5 h, absorbance 570 nm. On the procedure: The antioxidant capacity of the phenolic compounds was evaluated using a total antioxidant capacity (TAC) colorimetric assay kit (K274-100, BioVision, CA, USA), according to the manufacturer’s instructions. Briefly, the phenolic compounds tested at 7 concentrations (as described above) were added to 384-well plates. Subsequently, Cu^2+ working solution (12.5 µL/ well) was added into the sample wells. The 384-well plates were incubated for 1.5 h at room temperature and the absorbance of the samples was then read at 570 nm using a microplate reader (Enspire, Perkin Elmer Inc., Waltham, MA, USA). Trolox was used to standardize the antioxidant capacity, as recommended by the manufacturer. A Trolox standard curve was included, and the total antioxidant capacity of the phenolic compounds was interpolated and expressed as Trolox equivalent (mM) from a seven-parameter logistic curve of the Trolox control using curve-fitting software.
For total antioxidant capacity analysis, linear regression analysis was performed to identify the linear regression equation for each compound using GraphPad Prism 8 (San Diego, CA, USA). The coefficient of the compound equation was compared with the coefficient of the Trolox control to determine the relative total antioxidant capacity of each compound. Fold-increase over Trolox was calculated by dividing the coefficient of the compound models by the coefficient of the Trolox control.

Consider `O=C(O[C@@H]1Cc2c(O)cc(O)cc2O[C@@H]1c1ccc(O)c(O)c1)c1cc(O)c(O)c(O)c1` [Epicatechin gallate], for which the IC50 in data set [1] stood at 64.4 µM. The “toxicity to HepG2-ARE cells” value in data set [2] (at high concentrations, did not induce ARE activation) is “toxic to cells”. For the same compound, the IC50 in data set [3] is 66 µM. In addition, in data set [4], the “Fold-Increase Over Trolox” value amounted to 4.2, the “total antioxidant capacity compared with the control (Trolox)” value is “higher” and the “Slope (in Trolox Equivalents)” value was 0.004294 ± 1.570 × 10^−4.

Regarding `Oc1cc(O)c2c(c1)O[C@H](c1ccc(O)c(O)c1)[C@H](O)C2` [(−)-Epicatechin], the IC50 in data set [1] was more than 250 µM. In data set [2] (HepG2-ARE cells, 18 h), the “ARE activation among all compounds (rank in words)” value was “strongest”. Moreover, the IC50 in data set [3] is more than 250 µM. In data set [4], the “Fold-Increase Over Trolox” value was found to be 3.7, the “total antioxidant capacity compared with the control (Trolox)” value is “higher” and the “Slope (in Trolox Equivalents)” value is reported as 0.003729 ± 7.546 × 10^−5.
